Test results published in US5608095A, “Alkyl-4-silyl-phenols and esters thereof as antiatherosclerotic agents” (Hoechst Marion Roussel, Inc., priority 1996, dated 1997).
Like-named read-outs stand apart in the source and are kept apart here.

Assays:
[1] = HPLC quantitation of compound and metabolite concentration in rat serum and liver; assay type: in vivo, male Sprague-Dawley rats; details: 4 days; for concentration at 96 h: po
Procedure, shortened: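 Male Sprague-Dawley rats (50–100 g, n=5) fed compound as 0.3% or 0.1% dietary admixture for 4 days; serum and liver taken day 5. Ether:ethanol extracts analysed by reverse-phase C18 HPLC at 240, 254, 420 nm for parent, bisphenol and diphenoquinone; recovery-corrected, μg/mL serum, μg/g liver.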

[2] = Clinical chemistries in serum of rats; assay type: in vivo, male Sprague-Dawley rats; details: rat serum, 4 days; for response vs control in vivo at 0.3 % / response vs control in vivo at 0.1 %: po, 96 h
Procedure, shortened: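 Male Sprague-Dawley rats (50-100 g, N=5/group) fed compound as 0.3% or 0.1% dietary admixture for 4 days vs untreated-chow controls. Non-fasted rats bled by cardiac puncture on day 5; fresh serum analysed on autoanalyzer for ALP, ALT, AST (units/L) and cholesterol, triglycerides, glucose (mg/dL).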

oxidation of lipids = experiment: Conjugated diene determination, rat serum; assay type: in vivo, male Sprague-Dawley rats; details: pooled rat serum, 4 days, mean of 2 determinations
Source text: A typical experiment consisted of 4-6 groups of rats (N=5 per group) with 1 group being a control which received no MDL compound and the other groups being treated with 0.3% MDL compound. Some of the compounds were either repeated at 0.3% or evaluated again at the lower dose of 0.1%. Male Sprague-Dawley rats, 50-100 g, (Harlan Laboratories, Indianapolis, Ind.) were housed in groups of 5, fed ad libitum water and Purina Rodent chow (#5002) with or without MDL compound as a dietary admixture for 4 days. Dietary admixtures (0.3%) were made by mixing 1.2 grams of an MDL compound with 400 grams of Purina rodent chow (#5002). The MDL compound was mixed with approximately 50 grams of food using a mortar and pestle. This was added to the remainder of the food and mixed for 3 hours on a rotary mixer. In the morning of day 5, non-fasted rats were anesthetized with carbon dioxide, and blood was collected by cardiac puncture. Rats were sacrificed by cervical dislocation. Body weights and liver weights were recorded in grams. Food consumption was recorded as grams.cndot.day^-1.cndot.rat^-1. Deaths were recorded as mortality. Aliquots of fresh serum were used for clinical chemistries, thiobarbituric acid reactive substances (TBARS) and conjugated diene measurements. Aliquots of serum (~0.5mL) and whole livers were frozen at -20° C. for compound and metabolite concentration determination at a later time.
Conjugated diene lag phase is another indicator of the oxidation of lipids. Lipids exposed to Cu^++ form conjugated dienes that absorb ultraviolet light in the range of 230 to 235 nm. The lag phase of diene formation gives an indication of the amount of oxidation of the lipids. A lag phase longer than control samples indicate inhibition of the oxidation. Conjugated diene lay phase was determined using a Varian DMS200 spectrophotometer (fitted with a constant temperature, 5 cuvette sample changer) at 30° C. Twenty (20) μL of pooled serum were added to cuvettes containing 3.0 mL phosphate buffered saline, pH 7.5, and mixed. The absorbances of all cuvettes were measured, and the instrument baseline was set to zero using the lowest absorbing sample. Next, 100 μL of 1 mmol CuSO4 were added and immediately mixed. The absorbance of each cuvette was recorded at 2 min intervals for a period of 840 min. The data were captured and transferred to a Microsoft EXCEL® spreadsheet where the curves were smoothed and differentials obtained. Lag times were determined mathematically as minutes. Serum samples were pooled (N=5); data presented are the mean values of 2 determinations. Serum samples from treated rats were compared to serum samples from control rats that received no MDL compound.

[3] = Food consumption, body and liver weight in cholesterol-fed rabbits; assay type: in vivo, female New Zealand White rabbits; details: diet 0.4%, 7 days; for body wt., percent of control / lw/bw (liver weight/body weight), percent of control: rabbit
Procedure, shortened: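 Female New Zealand White rabbits fed 100 g/day of 0.2% cholesterol chow sprayed with compound (mostly 0.4%; some at 0.26% or 0.6%) from ethanol or diethyl ether:ethanol 3:2, for 7 days (14 days at 0.6%). Daily food intake, terminal body and liver weights recorded in grams.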

[4] = rat liver, diet 0.3%, read-out: Liver Parent = parent compound concentration
[5] = rat serum, diet 0.3%, read-out: Serum Parent = parent compound concentration
[6] = diet 0.3%, read-out: CHOL (total cholesterol), percent of control
[7] = diet 0.3%, read-out: TRIG (triglycerides), percent of control

Compound | concentration at 96 h [1, 4] [ng/g] | concentration at 96 h [1, 5] [ng/mL] | response vs control in vivo at 0.3 % [2, 6] [%] | response vs control in vivo at 0.3 % [2, 7] [%] | ALP (alkaline phosphatase), percent of control ([2]; diet 0.3%) [%] | ALT (alanine aminotransferase), percent of control ([2]; diet 0.3%) [%] | AST (aspartate aminotransferase), percent of control ([2]; diet 0.3%) [%] | GLUC (glucose), percent of control ([2]; diet 0.3%) [%] | CONJ. DIENE (conjugated diene lag phase) (oxidation of lipids; diet 0.3%) [min] | food (grams eaten per day per rabbit), percent of control [3] [%] | body wt., percent of control [3] [%] | lw/bw (liver weight/body weight), percent of control [3] [%] | also measured
CC(C)(C)c1cc(OC[Si](C)(C)c2ccccc2)c(C(C)(C)C)cc1O [MDL 104,962, 2,5-Di-t-butyl-4-[(dimethylphenylsilyl)methyloxy]phenol] | 43500 | 16400 | 99 | 74 | 130 | 112 | 109 | 91 | 320 | 69 | 97 | 71 | –
CC(=O)Oc1ccc(OC[Si](C)(C)c2ccccc2)cc1C(C)(C)C [MDL 105,443, 2-t-Butyl-4-[(dimethylphenylsilyl)methyloxy]phenol acetic acid ester] | – | – | 131 | 126 | 90 | 156 | 171 | 98 | – | 100 | 101 | 90 | Liver Parent = parent compound concentration ([1]; rat liver, diet 0.1%): 0 µg/g; Liver Parent = parent compound concentration ([1]; rat liver, diet 0.3%): 0 µg/g; Serum Parent = parent compound concentration ([1]; rat serum, diet 0.1%): 0 µg/mL; Serum Parent = parent compound concentration ([1]; rat serum, diet 0.3%): 0.0 µg/mL; response vs control in vivo at 0.1 % ([2]; diet 0.1%, read-out: CHOL (total cholesterol), percent of control): 111%; response vs control in vivo at 0.1 % ([2]; diet 0.1%, read-out: TRIG (triglycerides), percent of control): 111%; ALP (alkaline phosphatase), percent of control ([2]; diet 0.1%): 101%; ALT (alanine aminotransferase), percent of control ([2]; diet 0.1%): 116%; AST (aspartate aminotransferase), percent of control ([2]; diet 0.1%): 94%; GLUC (glucose), percent of control ([2]; diet 0.1%): 106%; CONJ. DIENE (conjugated diene lag phase) (oxidation of lipids; diet 0.1%): 151 min
COc1ccc([Si](C)(C)COc2ccc(O)c(C(C)(C)C)c2)cc1 [MDL 106,834, 2-t-Butyl-4-[(dimethyl-p-methoxylphenylsilyl)methyloxy]phenol] | 2700 | 1800 | 150 | 83 | 69 | 141 | 122 | 95 | 492 | 99 | 99 | 94 | –
